Tested on: patients suffering from migraine (moderate or severe migraine attacks)
Assay: Double-blind, randomized, cross-over, placebo-controlled study of rizatriptan and trimebutine for treating migraine
Assay type: in vivo, human
Description: Thirty-two patients (24 women and 8 men, aged between 21 and 61, average=39.7) suffering from migraine according to the criteria of the International Headache Association were randomized to treat 2 consecutive moderate or severe attacks with a tablet of 10 mg of rizatriptan and a capsule of 200 mg of trimebutine and 2 attacks with the same amount of triptan and placebo, and vice-versa. The severity of the attacks, as well as the presence of nauseas and photophobia at the moment of ingesting the drug after 1, 2 and 4 hours were collected.

SMILES: CN(C)CCc1c[nH]c2ccc(Cn3cncn3)cc12 [rizatriptan]
- without pain after 1 hour (share of the 38 attacks without pain) (10 mg rizatriptan tablet with 200 mg trimebutine capsule or placebo, 1 hour, of the 38 attacks, p<0.001): 21.1%
- without pain after 2 hours (share of the 67 attacks) (10 mg rizatriptan tablet with 200 mg trimebutine capsule or placebo, 2 hours, of the 67 attacks, p<0.0001): 29.9%
- adverse events present (number of attacks treated) (64 attacks treated with each drug regimen): 18 attacks
- free from nausea after 1 hour (1 hour, p<0.001): 23.7%
- free from photophobia after 1 hour (1 hour, p<0.001): 26.7%

Source: patent US20080081798A1, “Pharmaceutical combinations for the treatment of head-aches and migraine attacks as well as blisters and packs that contain them” (priority 2006, published 2008)
